{"source": "patent US8007790B2", "about": "“Methods for treating polycystic kidney disease (PKD) or other cyst forming diseases” (Stowers Institute for Medical Research, priority 2006, dated 2011)", "key": {"Pkd2+/- mice [1]": {"tested_on": "Pkd2+/- mice", "assay": "Cyst formation in Pkd2+/- mice injected with TNF-alpha", "type": "in vivo", "conditions": "5 μg/mouse/week intraperitoneal, week 4 to week 8.5; control 0 of 10; Fisher's exact test p=0.04", "experimental": "The in vitro results described above indicate that TNF-alpha may be a strong physiological modifier of FIP2 that promotes the ADPKD disease phenotype at the organismal level. To test this hypothesis in vivo, 4 week old Pkd2+/− mice were directly injected intra-peritoneally with TNF-alpha (5 μg/mouse, 1 injection/wk) for 4 weeks. Pkd2 mutant mice (Pkd2-183) were kindly provided by Stephan Somlo (Yale University). For TNF-alpha (Genzyme Diagnostic, Cambridge, Mass.) treatment experiments, mice were intraperitoneally injected weekly, from week 4 (day 28) to week 8.5 (day 60), with 5 μg of TNF-alpha per mouse per week or phosphate buffered saline (PBS). 9-17 week old Pkd2+/− mice developed cysts at a frequency of 0.21. Accordingly, the natural frequency of cyst formation may be much lower in the 4 week olds."}, "FIP2 [2]": {"tested_on": "FIP2", "assay": "Immunoblot of FIP2 level in TNF-alpha treated IMCD cells", "type": "cell-based", "experimental": "(§1) The disruption of PC2 localization by TNF-alpha was further confirmed using immunoprecipitation, western blotting, and a TUNEL Assay. Immunoprecipitation and Western blotting were performed on whole-cell lysates as previously described. Li et al, Polycystin-1 and polycystin-2 regulate the cell cycle through the helix-loop-helix inhibitor Id2. Nat Cell Biol, 7(12):1202-12 (2005). The antibodies used for Western blotting included rabbit polyclonal anti-FIP2 51, rabbit anti-PC2 polyclonal antibody 96525 50, rabbit anti-PC1 polyclonal antibody 96521, rabbit anti-Rab8 polyclonal antibody and rabbit anti-TNFR-I polyclonal antibody. Secondary antibodies used included: goat-anti-rabbit IgG-fluorescein isothiocyanate (FITC Molecular Probes, Eugene, Oreg.), goat-anti-mouse IgG-Texas Red, (1:500 dilution; Molecular Probes). For western blotting, goat-anti-rabbit IgG-horseradish peroxidase (HRP or goat-anti-mouse IgG-HRP, 1:10,000 dilution; Amersham Pharmacia Biotech) were used as secondary antibodies.\n(§2) Primary cell cultures were prepared as described previously. The cells were propagated in DMEM/F12 supplemented with 5% FBS, 5 μg/ml insulin, 5 μg/ml transferrin and 5 ng/ml sodium selenite (ITS) and 100 IU/ml penicillin G and 0.1 mg/ml streptomycin. […]"}, "[3]": {"tested_on": "PC2 localization in inner medullary collecting duct (IMCD) cells", "assay": "Immunofluorescence of PC2 localization in IMCD cells after TNF-alpha induction", "type": "cell-based", "experimental": "[…] IMCD (ATCC catalog no. CRL-2123) cells were cultured in Dulbecco's modified Eagle's medium/F12 medium supplemented with 10% (v/v) fetal bovine serum (Invitrogen). Then, these cells were induced with TNF-alpha at a final concentration of 200 ng/ml. Immunofluorescence of the IMD cells was performed before and after 16 hours of TNF-alpha exposure.\nImmunofluorescence was carried out as previously described. Li et al, Polycystin-1 and polycystin-2 regulate the cell cycle through the helix-loop-helix inhibitor Id2. Nat Cell Biol, 7(12):1202-12 (2005). Primary antibodies were used at the following dilutions: FIP2 (1:100), PC1 (1:500), PC2 (1:500), and flag (1:500). Secondary antibodies used included goat-anti-rabbit IgG-fluorescein isothiocyanate (Molecular Probes, Eugene, Oreg.) and goat-anti-mouse IgG-Texas Red (1:500 dilution; Molecular Probes). Images were captured on an inverted microscope (Axiovert 200M, Carl Zeiss, inc.) equipped with a spinning disc confocal head (Yogogawa), Argon-Krypton laser system (Prairie Technologies, Inc.), and ORCA-ER CCD camera (Hamamatsu). Images were acquired using the Metamorph software (Molecular Devices) and 3D image reconstruction was performed using the Volocity (Improvision, Inc.) software.\nThe disruption of PC2 localization by TNF-alpha was further confirmed using immunoprecipitation, western blotting, and a TUNEL Assay. […]"}, "[4]": {"tested_on": "TNF-alpha receptor (TNFR)", "assay": "Immunoblot of TNFR level in TNF-alpha treated IMCD cells", "type": "cell-based", "experimental": "as §1, §2"}, "[5]": {"tested_on": "cultured embryonic kidneys (E15.5)", "assay": "Mouse embryonic kidney organ culture cyst formation assay", "experimental": "Embryonic kidneys were dissected in PBS (with calcium and magnesium) plus penicillin-streptomycin-glutamine (GiBCO, Grand Island, N.Y.) from embryos of wild type CD1 mice at E15.5, E16.5 or E17.5 and of C57BL/6 Pkd1+/− or C57BL/6 Pkd2+/− mice or their wild type counterparts at E15.5. The dissected kidneys were cultured at 37° C. in DMEM/F12 containing 2 mM L-glutamine, 10 mM Hepes, 5 μg/ml insulin, 5 μg/ml transferrin, […] selenium, 25 ng/ml prostaglandin E1, 32 pg/ml T3 and 250 IU/ml penicillin-streptomycin. The kidneys were cultured with or without TNF-alpha (Genzyme Diagnostic, Cambridge, Mass.) at different concentrations for 48 hours and then 50 μM 8-Bromo-cyclic AMP (Sigma, St. Louis, Mo.) was added for 5 days. The cultured kidneys were then fixed with 4% paraformaldehyde (PFA) in PBS for 6 hours, washed with PBS twice for 5 minutes each, and transferred to 70% EtOH for short-term storage at room temperature or for more extended storage at 4° C. The fixed kidney samples were subsequently processed for Hematoxylin and Eosin staining following a common histology protocol.\nTo test the effect of TNF-alpha treatment, the culture conditions were modified using E15.5 kidneys and a low concentration of cAMP, such that there was no cyst formation (0/32 kidneys observed) in the absence of TNF-alpha (see top panel FIGS. 2A and 2B). […] (FIG. 2B). […] Thus, in FIG. 2B, treatment with different concentrations of TNF-alpha for 5 days triggered cyst formation in Pkd2+/− cultured kidneys from E15.5 embryos."}, "IMCD cells": {"tested_on": "IMCD cells", "type": "cell-based", "experimental": "To confirm that localization of PC2 was not due to cell death, a TUNEL Assay was performed. Cells treated with or without TNF-alpha were fixed with 4% PFA. The TUNEL assay was performed using a fluorescent apoptosis-detection system (R&D systems, Minneapolis, Minn.) according to the manufacturer's instructions. Fixed cells were treated with TACS-nuclease for the positive control."}, "Pkd2+/- mice [6]": {"tested_on": "Pkd2+/- mice", "assay": "Cyst formation in Pkd2+/- mice treated with etanercept", "type": "in vivo", "conditions": "25 μg/mouse/week, 10 weeks, n=14; PBS control 25% (n=16); Fisher's exact test p=0.05", "experimental": "Chronic inhibition of FIP2 expression by a FIP2 inhibitor such as a TNF-alpha inhibitor may alleviate cyst formation. For the TNF-alpha inhibitor etanercept (AMGEN, Thousand Oaks, Calif.), treatment experiments, mice were intraperitoneally injected weekly, from week 8.5 (day 60) to week 18.5 (day 130), with 25 μg of etanercept per mouse per week or phosphate buffered saline (PBS).\nTo this end, 8-week old Pkd2+/− mice were treated with either etanercept […] administered at 25 μg/mouse/week), or phosphate buffered saline (PBS) in the control group. […] This frequency is consistent with that reported previously (21%, n=29). Remarkably, none of etanercept-treated mice developed kidney cysts (n=14)."}, "[7]": {"tested_on": "PC2 localization in IMCD cells", "assay": "Rescue of PC2 localization by FIP2 siRNA in TNF-alpha treated IMCD cells (immunostaining)", "type": "cell-based", "experimental": "(§3) RNAi specific to FIP2 was used to test if the effect of TNF-alpha on PC2 localization was FIP2-dependent. IMCD cells were transfected with siRNA specific for FIP2 to determine if FIP2 caused mislocalization of PC2 upon TNF-alpha induction.\n(§4) The transfection was performed using the DharmaFECT siRNA transfection reagent (Dharmacon, Chicago, Ill.) according to the manufacturer's protocol.\nIn FIGS. 1C and 1 D, anti-PC2 antibodies (96525 FIG. 1C; YCC2 FIG. 1D) at a concentration of 1:500 were used to determine whether FIP2 siRNA reduces or eliminates FIP2 expression to restore PC2 localization in TNF-alpha treated IMCD cells.\n(§5) In FIG. 7A, 4 different siRNAs against FIP2 were transfected into IMCD cells. In FIG. 7B, a Western blot was performed as described above using anti-FIP2 antibody to determine FIP2 levels in IMCD cells, which were transfected with siRNA#05 (SEQ ID NO: 2) and #08 (SEQ ID NO: 8) and then treated with TNF-alpha for 16 hours. In FIGS. 7C-7F, immunostaining was performed as described above with 96525 anti-PC2 antibody or YCC2 anti-PC2 antibody at a concentration of 1:500 with IMCD cells transfected with siRNA#08 (SEQ ID NO: 8) before and after TNF-alpha induction."}, "FIP2 [8]": {"tested_on": "FIP2", "assay": "FIP2 siRNA knock-down of FIP2 expression in IMCD cells (Western blot)", "type": "cell-based", "conditions": "transfected IMCD cells, comparison of 4 siRNAs", "experimental": "as §3, §4, §5"}}, "note": "{P} = phosphate", "data": [{"substance": "TNF-alpha", "values": [{"measurement": "mice that developed unilateral cysts", "setting": "Pkd2+/- mice [1]", "result": "4 of the 10"}, {"measurement": "induction of FIP2 level", "setting": "FIP2 [2]", "result": 2, "unit": "fold"}, {"measurement": "cells showing loss of PC2 staining at the plasma membrane and cilia", "setting": "[3]; 200 ng/ml TNF-alpha, 16 hours, anti-PC2 antibody 96525", "result": 100, "unit": "%"}, {"measurement": "PC2 cilia localization", "setting": "[3]; TNF-alpha 16 hr, YCC2 anti-PC2 antibody, confocal microscopy", "result": "loss of PC2 localization along the primary cilia"}, {"measurement": "increase of TNFR levels", "setting": "[4]", "result": 35, "unit": "%"}, {"measurement": "lowest TNF-alpha concentration resulting in cyst formation", "setting": "[5]; Pkd2+/- embryonic kidneys, 5 days", "result": 1.5, "unit": "ng/mL"}, {"measurement": "cultured kidneys with cyst formation", "setting": "[5]; wild type embryonic kidneys, 6.25-12.5 ng/ml TNF-alpha, five days, low cAMP", "result": "20/20"}, {"measurement": "lowest TNF-alpha concentration resulting in cyst formation", "setting": "[5]; wild type embryonic kidneys, five days", "result": 6.25, "unit": "ng/mL"}, {"measurement": "TUNEL staining (cell death)", "setting": "IMCD cells", "result": "negative for TUNEL staining"}]}, {"substance": "etanercept", "values": [{"measurement": "mice that developed kidney cysts", "setting": "Pkd2+/- mice [6]", "result": "none"}]}, {"substance": "siRNA#08: siRNA against FIP2 (Dharmacon); sense SEQ ID NO: 7, antisense SEQ ID NO: 8 (sense CCAUGAAGCUAAAUAAUCAUU; antisense UGAUUAUUUAGCUUCAUGGUU; sense: RNA, backbone not given here; antisense: RNA, 5' {P}, backbone not given here)", "values": [{"measurement": "PC2 localization after TNF-alpha induction", "setting": "[7]; immunostaining with 96525 anti-PC2 antibody", "result": "rescued the TNF-alpha effect on PC2 localization"}, {"measurement": "PC2 cilia localization after TNF-alpha induction", "setting": "[7]; immunostaining with YCC2 anti-PC2 antibody", "result": "rescued the PC2 cilia localization"}, {"measurement": "effect on FIP2 expression", "setting": "FIP2 [8]", "result": "strongest effect"}]}]}
